Assay results as given in US10980835B2, “Arsenic trioxide for treatment of PIN1-associated disorders” (Beth Israel Deaconess Medical Center, Inc., priority 2016, dated 2021).

Experiments:
[1] = target: T1, Pin1 (Homo sapiens, UniProt Q13526); assay: Pin1 protein levels in triple negative breast cancer cell lines by immunoblotting; assay type: cell-based; details: SUM159, Hs578T and MBA-MB-231 cells
T1 construct: followed by assaying Pin1 levels using immunoblotting; endogenous in cells; host or cells: SUM159, Hs578T, MDA-MB-231 (printed MBA-MB-231)
T1 sequence (Q13526 whole entry): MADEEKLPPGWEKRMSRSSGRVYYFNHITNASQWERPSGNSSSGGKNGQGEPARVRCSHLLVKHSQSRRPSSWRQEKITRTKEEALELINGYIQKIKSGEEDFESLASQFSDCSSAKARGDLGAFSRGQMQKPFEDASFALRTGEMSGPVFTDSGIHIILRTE
From the text: FIG. 5 is a series of western blots and corresponding graphs of quantified protein expression depicting arsenic trioxide-induce Pin1 degradation in triple-negative breast cancer cell lines (SUM159, Hs578T, and MBA-MB-231).
FIG. 7 is a series of western blots and corresponding graphs of quantified protein expression levels showing that, in triple-negative breast cancer cell lines (SUM159 and Hs578T), arsenic trioxide-induced Pin1 degradation is blocked by the proteasome inhibitor, MG132.
FIG. 8 is a series of western blots and corresponding graphs of quantified protein expression levels showing that all-trans retinoic acid (ATRA) induces Pin1 degradation in triple-negative breast cancer cell lines (SUM159, Hs578T, and MBA-MB-231).
FIG. 9 is a series of western blots and corresponding graphs of quantified protein expression levels depicting decrease in Pin1 protein expression in triple-negative breast cancer cells (SUM159, Hs578T, and MBA-MB-231) following combination treatment with ATO and ATRA, as compared to treatment with either ATO or ATRA, alone. […]
Two different human triple negative breast cancer cell lines (SUM159 and Hs578T) were treated with different concentrations of ATO in the presence of the proteasome inhibitor MG132 or vehicle control DMSO. […] cells were collected and lysed and levels of Pin1 protein expression were quantified by immunoblotting. […]

[2] = tested on: Hs578t and SUM159 cells; assay: FACS quantification of ALDH+ cells; assay type: cell-based, human
From the text: (§1) FIG. 11 is a series of plots generated by fluorescence-activated cell sorting (FACS) and a corresponding graph that depicts the quantification of aldehyde dehydrogenase-positive (ALDH+) cells following treatment with ATRA, ATO, or a combination of ATRA and ATO. ALDH is tumor marker associated with breast cancer stem cells. The fraction of ALDH+ cells is decreased in Hs578T cells treated with ATRA+ATO, as compared to those treated with either ATRA or ATO, alone.
as §1, with “12” for “11”, “SUM159” for “Hs578T”
Two different human triple negative breast cancer cell lines (Hs578t and SUM159) were treated with ATRA, ATO, or a combination of ATRA and ATO. Fluorescence-activated cell sorting (FACS) was used to quantify the proportion of aldehyde dehydrogenase-positive (ALDH+) cells following treatment. […]

[3] = tested on: MDA-MB-231 breast cancer cell line; assay: Intracellular arsenic levels by ICP-Masspec; assay type: cell-based, human; details: MDA-MB-231 cells treated with ATRA, relative to control
Protocol: FIGS. 16A-C are a series of graphs showing that ATRA increases intracellular arsenic concentration measured by ICP-Masspec.
Intracellular arsenic levels were measured by ICP-Masspec in breast cancer cells lines treated with either ATRA, shRNA knockdown of AQP9, or overexpression of AQP9.

[4] = tested on: Human triple negative breast cancer MBA-MB-231 cells; assay: Mouse orthotopic implantation model with MBA-MB-231 cells; assay type: in vivo; details: nude mice, ATO 2 mg/kg every other day, ATRA 5 mg 21 day pellets, 6 weeks
From the text: FIG. 17A is a graph showing that combination treatment with ATRA and ATO results in greater tumor growth inhibition than treatment with either ATRA or ATO, alone. FIG. 17B is image of the excised tumors corresponding to FIG. 17A. FIG. 17C is a graph depicting tumor volume corresponding to the tumors pictured in FIG. 17B.
Human triple negative breast cancer MBA-MB-231 cells were orthotopically implanted into nude mice. A week after tumor growth was notable, mice were randomly grouped and treated with either ATO (2 mg/kg every other day), ATRA (5 mg 21 day slow releasing pellets), or a combination of both ATO (2 mg/kg every other day) and ATRA (5 mg 21 day slow releasing pellets). Tumor growth was measured weekly for 6 weeks.

[5] = tested on: triple negative breast cancer PDX; assay: Triple negative breast cancer patient derived xenograft (PDX) mouse model; assay type: in vivo
From the text: FIGS. 18A-D show the effect of ATO and ATRA on a triple negative breast cancer patient-derived xenograft (PDX) mouse model, where treatment was initiated two weeks after implantation. FIG. 18A is a graph showing that combination treatment with ATRA and ATO results in greater tumor growth inhibition than treatment with either ATRA or ATO, alone. FIG. 18B is image of the excised tumors corresponding to FIG. 18A. FIG. 18C is a graph depicting tumor volume corresponding to the tumors picture in FIG. 18B.
FIGS. 19A-C show the effect of ATO and ATRA on a triple negative breast cancer PDX mouse model, where treatment was initiated when the tumor volume reached to 250 mm^3. FIG. 19A is a graph showing that combination treatment with ATRA and ATO results in greater tumor growth inhibition than treatment with either ATRA or ATO, alone. FIG. 19B is image of the excised tumors corresponding to FIG. 19A. FIG. 19C is a graph depicting tumor volume corresponding to the tumors picture in FIG. 19B.
FIGS. 20A-D show the effect of ATO and ATRA on a triple negative breast cancer PDX mouse model, where treatment was initiated when the tumor volume reached to 300 mm^3. FIG. 20A is a graph showing that combination treatment with ATRA and ATO results in greater tumor growth inhibition than treatment with either ATRA or ATO, alone. FIG. 20B is image of the excised tumors corresponding to FIG. 20A. FIG. 20C is a graph depicting tumor volume corresponding to the tumors picture in FIG. 20B. FIG. 20D is a western blot depicting a decrease in Pin1 expression following treatment with either ATO, ATRA, or a combination of ATO and ATRA.
(§2) A PDX mouse model of triple negative breast cancer was treated with either ATO (2 mg/kg every other day), ATRA (5 mg 21 day slow releasing pellets), or a combination of both ATO (2 mg/kg every other day) and ATRA (5 mg 21 day slow releasing pellets). Treatment was initiated two weeks after implantation. Tumor growth was measured weekly for 7 weeks.
as §2, with “Furthermore, a PDX” for “A PDX”, “initiated when the tumor volume reached 250 mm^3.” for “initiated two weeks after implantation.”, “for 6” for “for 7”
as §2, with “Finally, a PDX” for “A PDX”, “initiated when the tumor volume reached 300 mm^3.” for “initiated two weeks after implantation.”, “for 6” for “for 7”, “weeks. […]” for “weeks.”

[6] = tested on: 231 and 159 cells; assay: FACS of breast TIC-enriched CD24-CD44+ or ALDH+ population; assay type: cell-based, human
Protocol: (§3) To examine the effects of ATO and ATRA on TICs in TNBC, 231 and 159 cells were treated with ATO (1 μM), ATRA (10 μM) or their combination, followed by assaying the breast TIC-enriched CD24-CD44+ or ALDH+ population using fluorescence-activated cell sorting (FACS). […] To examine the effects of ATO and ATRA on self-renewal of breast TICs, different TNBC cells were treated with ATO, ATRA or their combination, followed by a serial mammosphere formation assay.

[7] = tested on: TNBC 231 and 159 cells (breast TICs); assay: Serial mammosphere formation assay; assay type: cell-based, human; details: serial propagation M1-M4
Protocol: FIG. 22C is a graph showing that ATO and ATRA co-treatment dramatically reduces tumor growth.
as §3
Breast TICs are notoriously resistant to cytotoxic chemotherapy drugs such as taxol, which is commonly used to treat TNBC. While taxol treatment kills non-TIC cancer cells, it is ineffective against TICs, leading to TIC-enriched taxol-resistant cells. […] Thus, the combination of ATO and ATRA inhibits the growth of taxol-resistant TNBCs. This raised the question of whether the combination of ATO and ATRA could inhibit tumor initiation and growth of breast TICs in vivo. Accordingly, the effects of ATO and ATRA combination therapy on tumor initiation of TNBCs were assayed using a limiting dilution assay in mice, a standard approach to determine tumor initiation.

CC1=C(/C=C/C(C)=C/C=C/C(C)=C/C(=O)O)C(C)(C)CCC1 [ATRA, all-trans retinoic acid]
Pin1 levels (degradation) [1]: induced Pin1 degradation in a dose-dependent manner | Proportion of ALDH+ cells [2]: decreased the proportion of ALDH+ cells | Intracellular arsenic concentration [3]: increase intracellular arsenic concentrations relative to control | Tumor growth [4]: inhibited tumor growth | Pin1 levels in tumors ([5]; treatment initiated at 300 mm^3): decreased | Tumor growth ([5]; treatment initiated two weeks after implantation, 7 weeks): inhibited tumor growth | Tumor growth ([5]; treatment initiated when tumor volume reached 250 mm^3, 6 weeks): inhibited tumor growth | Tumor growth ([5]; treatment initiated when tumor volume reached 300 mm^3, 6 weeks): inhibited tumor growth | Breast TIC-enriched CD24-CD44+ or ALDH+ population [6]: significantly reduced breast TIC-enriched population | Mammosphere formation efficiency [7]: strongly impaired mammosphere formation efficiency at M2-3
